{"source": "patent US12473339B2", "about": "“Acylated glucagon analogues” (Zealand Pharma A/S, priority 2013, dated 2025)", "key": {"[1]": {"target": "T1, endogenous glucagon receptor (Rattus norvegicus, UniProt P30082)", "T1 construct": "Agonistic activity of the test compounds on endogenous glucagon receptor; endogenous in cells; host or cells: primary rat hepatocytes", "T1 sequence (P30082 27-485)": "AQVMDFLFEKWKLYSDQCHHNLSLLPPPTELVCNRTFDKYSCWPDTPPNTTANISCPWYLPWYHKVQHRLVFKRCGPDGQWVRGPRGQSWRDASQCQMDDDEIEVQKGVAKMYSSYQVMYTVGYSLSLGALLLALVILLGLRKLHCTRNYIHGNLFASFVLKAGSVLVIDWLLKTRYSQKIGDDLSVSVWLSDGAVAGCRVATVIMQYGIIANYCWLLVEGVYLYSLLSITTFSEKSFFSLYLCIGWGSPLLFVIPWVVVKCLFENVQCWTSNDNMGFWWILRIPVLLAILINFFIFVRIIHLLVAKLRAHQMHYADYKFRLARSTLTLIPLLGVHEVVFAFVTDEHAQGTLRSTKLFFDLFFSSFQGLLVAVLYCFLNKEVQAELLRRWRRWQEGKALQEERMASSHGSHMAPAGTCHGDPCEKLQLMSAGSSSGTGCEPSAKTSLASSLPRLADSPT", "test": "Agonistic activity on endogenous glucagon receptor (glycogen synthesis rate in primary rat hepatocytes)", "type": "cell-based", "details": "inhibition of glycogen synthesis rate (14C-glucose incorporation), 3 hours", "experimental": "Agonistic activity of the test compounds on endogenous glucagon receptor was determined by measuring their effect on rate of glycogen synthesis in primary rat hepatocytes. Upon activation of the glucagon receptor, an inhibition of the glycogen synthesis rate is expected. Rate of glycogen synthesis was determined by counting the amount of radioactively labeled glucose incorporated into the cellular glycogen stores in a defined period of time.\nPrimary rat hepatocytes were cultured at a density of 40,000 cells/well in a 24-well plate for 24 hours at 37° C. and 5% CO2.\nMedium was discarded and the cells washed with PBS. 180 μL of KRBH-based buffer containing 0.1% BSA and glucose at a concentration of 22.5 mM was then added to the wells, followed by test compound and 40 μCi/ml D-[U14C] glucose (20 μL each). Incubation was continued for 3 hours.\nAt the end of the incubation period, the incubation buffer was aspirated and cells washed once with ice-cold PBS before lysis by incubation for 30 min at room temperature with 100 μL 1 mol/l NaOH.\nCell lysates were transferred to 96-well filter plates and glycogen precipitated by incubating the filter-plates for 120 min at 4° C. followed by washing the filter plates 4 times with ice-cold ethanol (70%). The resulting precipitates were filtered to dryness and the amount of incorporated ^14C-glucose determined by using a Topcount scintillation counter according to manufacturer's recommendations.\nWells with vehicle controls (0.1% (v/v) DMSO in KRBH buffer) were included as reference for non-inhibited glycogen synthesis (100% CTL). Wells without added D-[U^14C] glucose were included as controls for non-specific background signal (subtracted from all values). Endogenous glucagon peptide was used as a positive control.\nAll treatments were performed at least in duplicates.\nParameters calculated to describe both the potency as well as the agonistic activity of each test compound on the endogenous glucagon receptor are pEC50 and % CTL.\n% CTL is determined by calculating the percentage of CPM/well in the presence of the test compound compared to the CPM/well of the vehicle control after subtracting the background CPM/well: [CPM/well(basal)−CPM/well(sample)]*100/[CPM/well(basal)−CPM/well(control)]\nAn activator of the glucagon receptor will result in an inhibition of the glycogen synthesis rate and will give % CTL values between 0% CTL (complete inhibition) and 100% CTL (no observable inhibition).\nThe resulting activity curves were plotted as absolute counts (unit: cpm/sample) over log (test compound concentration) and analyzed using the curve fitting program XLfit.\npEC50 (negative logarithmic value of EC50) reflects the potency of the test compound. […]"}, "[2]": {"target": "T2, human glucagon receptor (Glucagon-R) (Homo sapiens, UniProt P47871)", "T2 construct": "expressed in transfected cells", "T2 sequence (P47871 26-477)": "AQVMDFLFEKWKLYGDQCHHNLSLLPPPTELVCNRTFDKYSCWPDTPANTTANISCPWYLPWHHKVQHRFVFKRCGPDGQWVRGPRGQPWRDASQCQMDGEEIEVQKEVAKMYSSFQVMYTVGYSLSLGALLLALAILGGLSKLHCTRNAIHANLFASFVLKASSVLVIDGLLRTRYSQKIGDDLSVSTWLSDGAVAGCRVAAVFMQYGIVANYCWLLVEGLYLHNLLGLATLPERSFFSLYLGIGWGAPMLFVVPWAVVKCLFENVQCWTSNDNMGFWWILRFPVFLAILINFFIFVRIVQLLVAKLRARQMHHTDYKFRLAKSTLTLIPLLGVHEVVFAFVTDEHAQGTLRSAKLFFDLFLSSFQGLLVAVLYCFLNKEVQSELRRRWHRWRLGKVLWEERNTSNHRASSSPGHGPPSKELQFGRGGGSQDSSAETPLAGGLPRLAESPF", "test": "Glucagon receptor efficacy assay (cAMP AlphaScreen, CHO cells)", "type": "cell-based", "details": "cAMP formation, CHO cells expressing human Glucagon-R, 15 min; read-out: EC50 hGCGR CHO-K1", "excerpt": "(§1) The cDNA encoding either the human glucagon receptor (Glucagon-R) (primary accession number P47871) or the human glucagon-like peptide 1 receptor (GLP-1R) (primary accession number P43220) were synthesized and cloned into a mammalian expression vector containing a Zeocin resistance marker.\n(§2) The mammalian expression vectors encoding the Glucagon-R or the GLP-1-R were transfected into Chinese hamster ovary (CHO) cells by the Attractene method. Stably expressing clones were obtained by Zeocin selection (250 μg/mL) upon limited dilution of cells resistant to the selection pressure. Glucagon-R and GLP-1-R cell clones expressing were picked, propagated and tested in the Glucagon-R and GLP-1-R efficacy assays as described below. One Glucagon-R expressing clone and one GLP-1-R expressing clone were chosen for compound profiling.\n(§3) CHO cells expressing the human Glucagon-R, or human GLP-1-R were seeded 24 hours prior to the assay at 30,000 cells per well in 96-well microtiter plates in culture in 100 μl growth medium. On the day of analysis, growth medium was removed and the cells were washed once with 200 μl of assay buffer (Krebs-Ringer-buffer—KRBH). The buffer was removed and the cells were incubated for 15 min at room temperature in 10 μl KRBH (KRBH+10 mM HEPES, 5 mM NaHCO3, 0.1% (V/V) BSA) with 0.1 mM IBMX in deionized water containing increasing concentrations of test peptides. The reaction was stopped by the addition of lysis buffer (0.1% w/v BSA, 5 mM HEPES, 0.3% v/v Tween-20). After cell lysis for 10 min at room temperature, lysates were transferred to 384-well plates and 10 μl of acceptor/donorbead mixture as contained in the AlphaScreen™ cAMP Functional Assay Kit was added. After one hour of incubation at room temperature in the dark, the cAMP content was determined applying the AlphaScreen™ cAMP Functional Assay Kit from Perkin-Elmer according to manufacturer instructions. EC50 and relative efficacies compared to reference compounds (glucagon and GLP-1) were calculated applying computer aided curve fitting. The GLP-1/glucagon ratio is calculated as defined earlier."}, "[3]": {"target": "T3, human glucagon-like peptide 1 receptor (GLP-1R) (Homo sapiens, UniProt P43220)", "T3 construct": "expressed in transfected cells", "T3 sequence (P43220 24-463)": "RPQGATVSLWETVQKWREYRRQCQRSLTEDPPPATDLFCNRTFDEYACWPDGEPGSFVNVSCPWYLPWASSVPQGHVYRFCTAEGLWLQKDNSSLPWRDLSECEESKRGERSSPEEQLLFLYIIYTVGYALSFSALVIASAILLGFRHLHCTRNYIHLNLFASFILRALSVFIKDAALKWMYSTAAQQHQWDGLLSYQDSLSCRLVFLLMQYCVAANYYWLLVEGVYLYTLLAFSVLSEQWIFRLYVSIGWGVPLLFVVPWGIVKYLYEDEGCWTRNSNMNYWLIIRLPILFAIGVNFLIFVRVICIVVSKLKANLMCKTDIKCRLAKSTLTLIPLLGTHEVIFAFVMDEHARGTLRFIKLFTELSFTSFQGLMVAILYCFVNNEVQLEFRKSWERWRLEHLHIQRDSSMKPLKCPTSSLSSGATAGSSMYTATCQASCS", "test": "GLP-1 receptor efficacy assay (cAMP AlphaScreen, CHO cells)", "type": "cell-based", "details": "for Ratio GLP-1/Glucagon: EC50 [GLP-1R] / EC50 [Glucagon-R], human receptors in CHO-K1", "excerpt": "as §1, §2, §3"}, "[4]": {"test": "Pharmacokinetic parameters after intravenous administration to rats", "details": "male, Han/Wistar, rat, in vivo, 20 nmol/kg", "experimental": "Pharmacokinetic parameters of the test compounds were determined after intravenous administration to Han/Wistar rats. The acylated GLP-1 analogue semaglutide was also tested for comparison purposes. Male Wistar rats were obtained from Charles River (Germany) weighing approximately 180 to 210 g at time of arrival at the test facility. Rats were caged in European standard rat cages type IV with light cycle of 12-hour dark and 12-hour light. During the study rats were housed in standard rat cages type III. Both diet Altromin 1324 (Altromin, Germany) and water was administered ad libitum during the whole experimental period. The animals were housed in the test facility for at least 4 days in order to assure proper acclimatization. The compounds were first dissolved in 0.1% aqueous ammonia to a nominal concentration of 2 mg/ml, and then diluted to the desired dosing strength (10 μM) in sterile PBS containing 25 mM phosphate buffer, pH 7.4. Intravenous injections corresponding to 20 nmol/kg were given via a lateral tail vein. Blood samples (200 μl) were collected from the periorbital plexus at time points 0.08, 0.25, 0.5, 1, 2, 4, 8, 24, 32 and 48 h post dosing into K3EDTA tubes and centrifuged for 5 minutes at 4° C. within 20 minutes of sampling. […] Individual plasma concentration-time profiles were analysed by a non-compartmental approach using ToxKin™ version 3.2 (Unilog IT Services), and the resulting pharmacokinetic parameters were determined."}}, "note": "*1 amine or outer side, *2 acyl side, *3 side chain or, on linkers, in order; H or OH if unused. Where a SMILES comes first, the peptide text is derived from it. Side-chain parts run from the residue outwards. [ ]: non-standard residue; d: D form. The star is where a group is joined. C18 diacid = O=C(O)CCCCCCCCCCCCCCCCC(=O)*; γGlu = O=C(O)[C@H](CCC(=O)[*:2])N[*:1]; Ac4c = NC1(C(=O)O)CCC1; AEEA = NCCOCCOCC(=O)O; Aib = CC(C)(N)C(=O)O", "data": [{"smiles": "CC[C@H](C)[C@H](NC(=O)[C@H](Cc1ccccc1)NC(=O)[C@H](CC(=O)O)NC(=O)[C@H](CCCCN)NC(=O)[C@H](C)NC(=O)[C@H](CCCNC(=N)N)NC(=O)[C@H](CCCNC(=N)N)NC(=O)[C@H](CCC(=O)O)NC(=O)[C@H](CC(=O)O)NC(=O)[C@H](CC(C)C)NC(=O)[C@H](Cc1ccc(O)cc1)NC(=O)[C@H](CCCCN)NC(=O)[C@H](CO)NC(=O)[C@H](Cc1ccc(O)cc1)NC(=O)[C@H](CC(=O)O)NC(=O)[C@H](CO)NC(=O)[C@@H](NC(=O)[C@H](Cc1ccccc1)NC(=O)[C@@H](NC(=O)CNC(=O)[C@H](CCC(N)=O)NC(=O)C1(NC(=O)[C@@H](N)Cc2c[nH]cn2)CCC1)[C@@H](C)O)[C@@H](C)O)C(=O)N[C@@H](CCCCNC(=O)CNC(=O)CNC(=O)[C@H](CO)NC(=O)CNC(=O)[C@H](CO)NC(=O)CNC(=O)CC[C@H](NC(=O)CCCCCCCCCCCCCCCCC(=O)O)C(=O)O)C(=O)N[C@@H](Cc1c[nH]c2ccccc12)C(=O)N[C@@H](CC(C)C)C(=O)N[C@@H](CCC(=O)O)C(=O)N[C@@H](CO)C(=O)N[C@@H](C)C(N)=O", "note": "[Compound 14]", "values": [{"measurement": "EC50", "setting": "[1]", "value": 0.19, "unit": "nM"}, {"measurement": "EC50", "setting": "[2]", "value": 0.18, "unit": "nM"}, {"measurement": "Ratio GLP-1/Glucagon", "setting": "[3]", "value": 3.33}]}, {"smiles": "CC[C@H](C)[C@H](NC(=O)[C@H](Cc1ccccc1)NC(=O)[C@H](CC(=O)O)NC(=O)[C@H](CCCCN)NC(=O)[C@H](C)NC(=O)[C@H](CCCNC(=N)N)NC(=O)[C@H](CCCNC(=N)N)NC(=O)[C@H](CCC(=O)O)NC(=O)[C@H](CC(=O)O)NC(=O)[C@H](CC(C)C)NC(=O)[C@H](Cc1ccc(O)cc1)NC(=O)[C@H](CCCCN)NC(=O)[C@H](CO)NC(=O)[C@H](Cc1ccc(O)cc1)NC(=O)[C@H](CC(=O)O)NC(=O)[C@H](CO)NC(=O)[C@@H](NC(=O)[C@H](Cc1ccccc1)NC(=O)[C@@H](NC(=O)CNC(=O)[C@H](CCC(N)=O)NC(=O)C1(NC(=O)[C@@H](N)Cc2c[nH]cn2)CCC1)[C@@H](C)O)[C@@H](C)O)C(=O)N[C@@H](CCC(=O)O)C(=O)N[C@@H](Cc1c[nH]c2ccccc12)C(=O)N[C@@H](CC(C)C)C(=O)N[C@@H](CCC(=O)O)C(=O)N[C@@H](CCCCNC(=O)CNC(=O)CNC(=O)[C@H](CO)NC(=O)CNC(=O)[C@H](CO)NC(=O)CNC(=O)CC[C@H](NC(=O)CCCCCCCCCCCCCCCCC(=O)O)C(=O)O)C(=O)N[C@@H](C)C(N)=O", "note": "[Compound 16]", "values": [{"measurement": "EC50", "setting": "[1]", "value": 0.19, "unit": "nM"}, {"measurement": "Ratio GLP-1/Glucagon", "setting": "[3]", "value": 3.31}]}, {"smiles": "CC[C@H](C)[C@H](NC(=O)[C@H](Cc1ccccc1)NC(=O)[C@H](CC(=O)O)NC(=O)[C@H](CCCCN)NC(=O)[C@H](C)NC(=O)[C@H](C)NC(=O)[C@H](CCCNC(=N)N)NC(=O)[C@H](CCCCNC(=O)COCCOCCNC(=O)COCCOCCNC(=O)CC[C@H](NC(=O)CCCCCCCCCCCCCCCCC(=O)O)C(=O)O)NC(=O)[C@H](CC(=O)O)NC(=O)[C@H](CC(C)C)NC(=O)[C@H](Cc1ccc(O)cc1)NC(=O)[C@H](CCCCN)NC(=O)[C@H](CO)NC(=O)[C@H](Cc1ccc(O)cc1)NC(=O)[C@H](CC(=O)O)NC(=O)[C@H](CO)NC(=O)[C@@H](NC(=O)[C@H](Cc1ccccc1)NC(=O)[C@@H](NC(=O)CNC(=O)[C@H](CCC(N)=O)NC(=O)C(C)(C)NC(=O)[C@@H](N)Cc1c[nH]cn1)[C@@H](C)O)[C@@H](C)O)C(=O)N[C@@H](CCC(=O)O)C(=O)N[C@@H](Cc1c[nH]c2ccccc12)C(=O)N[C@@H](CC(C)C)C(=O)N[C@@H](CCC(=O)O)C(=O)N[C@@H](CO)C(=O)N[C@@H](C)C(N)=O", "note": "[Compound 2, H-H-Aib-QGTFTSDYSKYLD-K([17-carboxy-heptadecanoyl]-isoGlu-Peg3-Peg3)-RAAKDFIEWLESA-NH2] (H-H[Aib]QGTFTSDYSKYLDK([AEEA-AEEA-γGlu-C18 diacid])RAAKDFIEWLESA-NH2)", "values": [{"measurement": "EC50", "setting": "[1]", "value": 0.11, "unit": "nM"}, {"measurement": "Ratio GLP-1/Glucagon", "setting": "[3]", "value": 13.54}, {"measurement": "MRT", "setting": "[4]", "value": 13.6, "unit": "h"}, {"measurement": "clearance", "setting": "[4]", "value": 0.11, "unit": "mL/min/kg"}, {"measurement": "half-life", "setting": "[4]", "value": 9.1, "unit": "h"}]}, {"smiles": "CC[C@H](C)[C@H](NC(=O)[C@H](Cc1ccccc1)NC(=O)[C@H](CC(=O)O)NC(=O)[C@H](CCCCN)NC(=O)[C@H](C)NC(=O)[C@H](CCCNC(=N)N)NC(=O)[C@H](CCCCNC(=O)COCCOCCNC(=O)COCCOCCNC(=O)CC[C@H](NC(=O)CCCCCCCCCCCCCCCCC(=O)O)C(=O)O)NC(=O)[C@H](CCC(=O)O)NC(=O)[C@H](CC(=O)O)NC(=O)[C@H](CC(C)C)NC(=O)[C@H](Cc1ccc(O)cc1)NC(=O)[C@H](CCCCN)NC(=O)[C@H](CO)NC(=O)[C@H](Cc1ccc(O)cc1)NC(=O)[C@H](CC(=O)O)NC(=O)[C@H](CO)NC(=O)[C@@H](NC(=O)[C@H](Cc1ccccc1)NC(=O)[C@@H](NC(=O)CNC(=O)[C@H](Cc1c[nH]cn1)NC(=O)C1(NC(=O)[C@@H](N)Cc2c[nH]cn2)CCC1)[C@@H](C)O)[C@@H](C)O)C(=O)N[C@@H](CCC(=O)O)C(=O)N[C@@H](Cc1c[nH]c2ccccc12)C(=O)N[C@@H](CC(C)C)C(=O)N[C@@H](CCC(=O)O)C(=O)N[C@@H](CO)C(=O)N[C@@H](C)C(N)=O", "note": "[Compound 9, H-H-Ac4c-HGTFTSDYSKYLDE-K([17-carboxy-heptadecanoyl]-isoGlu-Peg3-Peg3)-RAKDFIEWLESA-NH2] (H-H[Ac4c]HGTFTSDYSKYLDEK([AEEA-AEEA-γGlu-C18 diacid])RAKDFIEWLESA-NH2)", "values": [{"measurement": "EC50", "setting": "[1]", "value": 0.11, "unit": "nM"}, {"measurement": "EC50", "setting": "[2]", "value": 0.07, "unit": "nM"}, {"measurement": "Ratio GLP-1/Glucagon", "setting": "[3]", "value": 13.86}, {"measurement": "EC50", "setting": "[3]; cAMP formation, CHO cells expressing human GLP-1-R, 15 min, read-out: EC50 hGLP-1R CHO-K1", "value": 0.97, "unit": "nM"}]}]}
